For one assay, the target named is T1, hDGAT-1 (HuTu 80) (Homo sapiens, UniProt O75907).
T1 construct: microsomal protein isolated from human duodenal adenocarcinoma (‘Hutu 80’); endogenous in cells; host or cells: HuTu 80 human duodenal adenocarcinoma cells (microsomes)
T1 sequence (O75907 1-488): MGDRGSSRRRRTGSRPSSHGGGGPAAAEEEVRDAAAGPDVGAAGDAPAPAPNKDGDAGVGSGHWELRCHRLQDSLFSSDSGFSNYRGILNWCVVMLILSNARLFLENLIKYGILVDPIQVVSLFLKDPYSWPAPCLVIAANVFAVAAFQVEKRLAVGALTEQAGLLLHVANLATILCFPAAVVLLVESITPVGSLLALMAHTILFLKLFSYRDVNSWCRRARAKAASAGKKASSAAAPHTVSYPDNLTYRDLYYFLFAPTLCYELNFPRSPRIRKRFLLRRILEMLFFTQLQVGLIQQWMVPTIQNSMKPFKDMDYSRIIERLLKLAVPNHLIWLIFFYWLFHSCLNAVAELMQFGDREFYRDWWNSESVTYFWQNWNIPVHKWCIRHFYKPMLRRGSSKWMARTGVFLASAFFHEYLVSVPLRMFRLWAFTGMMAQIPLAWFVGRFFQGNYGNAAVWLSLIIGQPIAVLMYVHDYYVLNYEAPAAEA
In words: DGAT enzyme inhibition test, microsomal protein from human duodenal adenocarcinoma (Hutu 80). The format is biochemical. Conditions: microsomal protein from HuTu 80. The text has this: To investigate inhibitory effect of the compounds of Examples 1-33 against DGAT enzyme activity, DGAT enzyme inhibition and DGAT2 selectivity were investigated using zymogen including:
2) DGAT enzyme derived from human duodenal adenocarcinoma (‘Hutu 80’), and
To be specific, for the purpose of measuring human-derived DGAT enzyme inhibitory activity, using the zymogen, including enzymes derived from insect cell overexpressing human DGAT1 and DGAT2 (‘sf9’), microsomal protein isolated from human duodenal adenocarcinoma (‘Hutu 80’), and microsomal protein isolated from rat, and according to Coleman et al., (Methods Enzymol., 98-103, 1992), and substrate including 1,2-diacylglycerol(Sigma, D0138) and [^14C]palmitoyl-CoA (Amersham, CFA583), the amount of radiation of [^14C]triacylglycerol produced after enzymatic reaction was measured.
To be more specific, to the reaction solution containing 175 mM Tris-HCl (pH 8.0), 20 μl bovine serum albumin (10 mg/ml), 100 mM magnesium chloride, 30 μM [^14C]palmitoyl CoA (0.02 μCi, Amersham) and 200 μM 1,2-dioleoylglycerol, reagent dissolved in dimethylsulfoxide (10.0 μl) was added. After introducing 100 to 200 μg isolated microsomal protein and allowing the same to react at 25° C. for 10 min, the reaction was stopped by adding 1.5 ml stop solution (2-propanol:heptane:water=80:20:2, v:v:v). To isolate the product of the reaction (i.e., [^14C]triacylglycerol), 1 ml heptane and 0.5 ml distilled water were added and then decocted. After taking 1 ml supernatant, 2 ml alkaline ethanol solution (ethanol:0.5 N sodium hydroxide:water=50:10:40, v:v:v) were added and then decocted. After taking 0.65 ml supernatant from the decoction, the amount of radiation was measured with liquid scintillation counter (LSC). The DGAT inhibitory activity was calculated with Mathematical Expression 1 below:
T denotes cpm of experimental group in which the enzymatic reaction solution was treated with the sample,
C denotes cpm of control group in which the enzymatic reaction solution was not treated with the sample, and
B denotes cpm of control group treated with the sample without zymogen.

A further assay has as its system HepG2 cells. In words: DGAT inhibitory effect in HepG2 cells (triglyceride production from [14C]glycerol). The assay is classed as cell-based. To be noted: Homo sapiens; for activity at 10 µM: HepG2, 6 h, DMSO control = 100, read-out: Triglyceride production rate (%)/HepG2 cells at 10 μM; for inhibition at 10 µM: HepG2, 10 μM, read-out: biosynthesis inhibition rate of triglyceride. Here is the method: To investigate inhibition effect on intracellular DGAT enzyme activity of the compounds obtained in Examples 1-51, intracellular DGAT enzyme activity was measured using human-derived liver HepG2 cells.
HepG2 cells were purchased from ATCC, and cultured in 37° C., 5% CO2 incubator including minimum essential medium (2 mM L-glutamine, earle's BSS adjusted to contain 1.5 g/L sodium bicarbonate, 0.1 mM nonessential amino acids, and 1 mM sodium pyruvate) added with 10% fetal bovine serum (FBS) and 1% antibiotic (100 U/ml penicillin and 100 µg/ml streptomycin).
The intracellular DGAT enzyme activity was measured based on an amount of triglycerides produced in the cultured HepG2 cells, by adding 10 μM enzyme inhibitor compounds obtained in Examples 1-51, respectively, and then determining the effect of the enzyme inhibitors according to reduction rate of the triglyceride production.
Specifically, cells were seeded 1×10^6 cell/ml per well of the 24 well culture plate, and 24 hours after incubation, medium was exchanged with FBS-free DMEM medium, and sample of 0.2 mCi [^14C]glycerol (Amersham) was added as substrate, and the reaction was allowed to occur for 6 hr. The induced production of triglyceride was catalyzed by the DGAT enzyme, and DGAT enzyme activity was determined based on the amount of production of triglyceride which was measured based on the amount of radiation. The sample was dissolved in dimethylsulfoxide (DMSO) to be used, and the control group in the triglyceride production reaction was reacted with dimethylsulfoxide only (i.e., without sample), and the amount of the triglyceride production rate was set to 100.
After the reaction completed, the substrate [^14C]glycerol which was either not absorbed into cells or not used for the reaction, were removed with phosphate-buffer-saline (PBS), and 0.5 ml extraction solvent (hexane:isopropanol=3:2, v:v) was added to extract full fat containing triglycerides. With 0.5 ml extraction solvent, extract was obtained two times for 30 min each, and 1 ml of the extract was concentrated with nitrogen gas. After removing the extraction solvent, the total fat was dissolved in organic solvent (chloroform:methanol=2:1) and spotted with thin-layer chromatography (TLC:silica gel 60F254, thickness: 0.5 mm, Merck) on the developing solvent (hexane:diethyl ether:acetic acid=80:20:1, v: v: v). Triglycerides (Rf value: 0.4) were isolated on TLC, and after exposing the TLC plate to the film with photosensitivity to radiation energy (imaging plate' Fujifilm, BMS-MS 2040) for 3 hr, the amount of [^14C] radiation of triglyceride was measured by imaging analysis (FLA 7000). The remaining cells after the extraction were dissolved in 0.3 ml 0.1 N sodium hydroxide for use in the measurement of protein concentration of the cells used for the reaction.
The experimental errors among the respective experimental groups were compensated with the experimental value which was obtained by dividing the measured radiation of triglyceride by protein concentration, and the production rate of triglyceride according to the respective compounds of Examples 1-51 are tabulated below.

Here are results for twelve compounds from patent publication US8906952B2, “Indole derivative or pharmaceutically acceptable salt thereof, preparation method thereof, and pharmaceutical composition for preventing or treating metabolic diseases containing same as active ingredient” (Korea Research Institute of Bioscience and Biotechnology, priority 2011, dated 2014).

Broadly, the IC50 is the point on the concentration scale where inhibition reaches its midpoint. Higher therefore signals weaker potency in that assay. A word on the inhibition: it is the drop in the measured response relative to a control, in per cent.

The compound `CC(C)N(NC(=O)c1ccc(Br)cc1)C(=O)/C=C/c1cn(C(=O)OC(C)(C)C)c2ccccc12` [Example 13, (E)-tert-butyl 3-(3-(2-(4-bromobenzoyl)-1-isopropylhydrazinyl)-3-oxoprop-1-enyl)-1H-indole-1-carboxylate] yielded an IC50 against hDGAT-1 (HuTu 80) of 8.1 µM. Further, in the assay on HepG2 cells, the activity at 10 µM amounted to 87.1%.
`CC(C)N(NC(=O)c1ccccc1)C(=O)/C=C/c1cn(C)c2ccccc12` [Example 25] showed an IC50 against hDGAT-1 (HuTu 80) of 29.2 µM. For the same compound, in the assay on HepG2 cells, the activity at 10 µM was determined as 88.6%.
Consider `CC(C)N(NC(=O)c1cccc(OCCN2CCOCC2)c1)C(=O)/C=C/c1cn(C(=O)OC(C)(C)C)c2ccccc12` [Example 8, (E)-tert-butyl 3-(3-(1-isopropyl-2-(3-(2-morpholinoethoxy)benzoyl)hydrazinyl)-3-oxoprop-1-enyl)-1H-indole-1-carboxylate], for which the IC50 against hDGAT-1 (HuTu 80) stood at 9.3 µM. Further, in the assay with HepG2 cells, the activity at 10 µM is 85.2%.
Compound `CC(C)N(NC(=O)c1ccccc1)C(=O)/C=C/c1cn(C(=O)OC(C)(C)C)c2ccccc12` [Example 1, (E)-tert-butyl 3-(3-(2-benzoyl-1-isopropylhydrazinyl)-3-oxoprop-1-enyl)-1H-indole-1-carboxylate] came in with an IC50 against hDGAT-1 (HuTu 80) of 1.4 µM. In the assay on HepG2 cells, the activity at 10 µM was found to be 60.1% and the inhibition at 10 µM is 30 to 40%.
On hDGAT-1 (HuTu 80), `CC(C)N(NC(=O)c1ccccc1)C(=O)/C=C/c1c[nH]c2ccccc12` [Example 22, (E)-N′-(3-(1H-indol-3-yl)acryloyl)-N′-isopropylbenzohydrazide] had a 50% inhibitory concentration (IC50) of 44.6 µM. In addition, in the assay with HepG2 cells, the activity at 10 µM stood at 116%.
The compound `CC(C)N(NC(=O)c1ccccc1)C(=O)/C=C/c1cn(C(=O)CC(C)(C)C)c2ccccc12` [Example 33, (E)-N′-(3-(1-(3,3-dimethylbutanoyl)-1H-indol-3-yl)acryloyl)-N′-isopropylbenzohydrazide] showed an IC50 at hDGAT-1 (HuTu 80) of 2.1 µM. In the assay with HepG2 cells, the activity at 10 µM turned out to be 78.2% and the inhibition at 10 µM was in the range of 20 to 30%.
For the compound `CC(C)(C)OC(=O)n1cc(/C=C/C(=O)NNC(=O)c2ccccc2)c2ccccc21` [Example 16, (E)-tert-butyl 3-(3-(2-benzoylhydrazinyl)-3-oxoprop-1-enyl)-1H-indole-1-carboxylate], half-maximal inhibition at hDGAT-1 (HuTu 80) (IC50) was put at 10.7 µM. Besides, in the assay with HepG2 cells, the activity at 10 µM came to 61.7% and the inhibition at 10 µM is 30 to 40%.
`CC(C)N(NC(=O)c1ccccc1)C(=O)/C=C/c1cn(Cc2ccccc2)c2ccccc12` [Example 26, (E)-N′-(3-(1-benzyl-1H-indol-3-yl)acryloyl)-N′-isopropylbenzohydrazide] came in with an IC50 on hDGAT-1 (HuTu 80) of 2.9 µM. For the same compound, in the assay on HepG2 cells, the activity at 10 µM worked out at 59.8% and the inhibition at 10 µM fell in the range of 30 to 40%.
On hDGAT-1 (HuTu 80), `COc1cccc(C(=O)NN(C(=O)/C=C/c2cn(C(=O)OC(C)(C)C)c3ccccc23)C(C)C)c1` [Example 6, (E)-tert-butyl 3-(3-(1-isopropyl-2-(3-methoxybenzoyl)hydrazinyl)-3-oxoprop-1-enyl)-1H-indole-1-carboxylate] gave an IC50 of 5.2 µM. For the same compound, in the assay with HepG2 cells, the activity at 10 µM is 74.8% and the inhibition at 10 µM lay in the range of 20 to 30%.
In the case of `CC(C)N(NC(=O)c1ccccc1)C(=O)CCc1c[nH]c2ccccc12` [Example 23, N′-(3-(1H-indol-3-yl)propanoyl)-N′-isopropylbenzohydrazide], the half-inhibitory concentration (IC50) against hDGAT-1 (HuTu 80) came out at 25.8 µM. Besides, the activity at 10 µM with HepG2 cells worked out at 87.7%.
On hDGAT-1 (HuTu 80), `CC(C)N(NC(=O)c1cccnc1)C(=O)/C=C/c1cn(C(=O)OC(C)(C)C)c2ccccc12` [Example 3, (E)-tert-butyl 3-(3-(1-isopropyl-2-nicotinoylhydrazinyl)-3-oxoprop-1-enyl)-1H-indole-1-carboxylate] returned an IC50 of 6.5 µM. For the same compound, in the assay on HepG2 cells, the activity at 10 µM is 66.8% and the inhibition at 10 µM is 30 to 40%.
In turn, `CC(C)N(NC(=O)c1ccc(O)cc1)C(=O)/C=C/c1cn(C(=O)OC(C)(C)C)c2ccccc12` [Example 5, (E)-tert-butyl 3-(3-(2-(4-hydroxybenzoyl)-1-isopropylhydrazinyl)-3-oxoprop-1-enyl)-1H-indole-1-carboxylate] displayed an IC50 against hDGAT-1 (HuTu 80) of 6.6 µM. In addition, in the assay on HepG2 cells, the activity at 10 µM came out at 62.2% and the inhibition at 10 µM lay within 30 to 40%.
